By solubility is commonly meant how much of the substance goes into solution per volume. A high value points to much dissolved substance.

Data set [1] in a line: Intrinsic (maximum) solubility in water at pH 1.5. Type of data set: physicochemical. To be noted: 25 °C, pH 1.5, simulated gastric fluid. As for the experimental part: The pH conditions were chosen to ensure that the solubility of the unionised species was estimated. […] Lea & Febiger/Philadelphia. […] […] The solvent (9.9 mL) was then added to the test tube. […] The test tube was sonicated for 15 minutes and centrifuged for 10 minutes (3000 g at 25° C.). An aliquot was filtered (Minisart 0.45 μm filter, Satorius) and diluted with HPLC mobile phase, then assayed. The tube was stored carefully in a 25° C. water bath after sampling and the remaining suspension was again sonicated and the process repeated 7 times at four hourly intervals. In these assays, standard curves were prepared by directly dissolving the esters in mobile phase. Concentrations for standard curves ranged from 1-50 μg/mL for all compounds. Furthermore, a manual injector (Waters Model U6K) was used (20 μL sample loop) which ensured that 20 μL was consistently injected onto the column and precluded the need for an internal standard.

The nature of data set [2]: In vitro non-enzymatic hydrolysis in Krebs-Henseleit buffer. It counts as physicochemical. The following applies: for Hydrolysis rate constant (k): pH 7.4, 25° C., n=5; for half-life: pH 7.4. As for the experimental part:
These experiments were carried out both in Krebs-Henseleit buffer containing either no protein or 2% w/v BSA (bovine serum albumin, fraction V, Sigma) at pH 7.4 and 25±1° C.
Solutions of the derivatives in Krebs buffer (10 mL) was prepared in siliconised glass tubes. Each solution was sonicated for 5 minutes and centrifuged for 5 minutes (3000 g) at 25° C. to ensure maximum dissolution and to sediment any undissolved precipitate. About 7.5 mL of the supernatant was then transferred to a clean siliconised test tube and a 100 μL aliquot was removed and assayed. […] The rate of non-enzymatic hydrolysis (k) for each derivative was then estimated using the following equation: […]
where C1 is the concentration of the ester at any time (t), and C0 is the concentration of the ester at time zero. The half-life (t½) was determined using the formula: […]

Data set [3] addresses T1, BSA (bovine serum albumin) (Bos taurus, UniProt P02769).
T1 construct: BSA (bovine serum albumin, fraction V, Sigma); purchased Sigma; host or cells: bovine serum (fraction V)
Put plainly: Protein binding by ultrafiltration in 2% BSA Krebs buffer. It counts as in vitro ADME. To be noted: 2% BSA Krebs-Henseleit buffer pH 7.4, 37° C.; slope of Scatchard plot. As to the method: These experiments were carried out in Krebs-Henseleit buffer containing 2% w/v BSA (pH 7.4) and incubated at 37° C. for 30 minutes.
A known concentration of the ethanolic (≲1%) aspirin analogue or diflunisal ester stock solution was added to the 2% BSA Krebs solution to make final concentrations of 125 μM, 250 μM and 500 μM.
The unbound fraction (fu) of parent drug and its hydrolysis product were investigated using ultra-filtration: A 1.0 mL aliquot sample (in triplicate) was placed in a ultrafiltration tube (MPS-1, micro-partition system, Amicon) and centrifuged at 3000 g for 10 minutes. The ultra-filtrate was then assayed for parent drug and its hydrolysis product by HPLC.
To eliminate possible errors caused by hydrolysis, identical samples were placed in normal tubes and subjected to the same procedure. This control group (also in triplicate) was used to adjust for the percentage of hydrolysis in the ultra-filtrate under the experimental conditions.
The fu was determined as the ratio of the free concentration to total concentration of solutes. The binding constant (K) was determined from the slope of a Scatchard plot using following equation:
[Db]/[D]=−K[Db]vK[Pt] (3)
where [Db] is the concentration of bound drug, [D] is the concentration of drug, [Pt] is the concentration of total protein, and v is the number of independent binding sites available. This equation is plotted as the ratio [Db]/[D] versus [Db] and in this way the binding constant (K) is determined from the slope while vK[Pt] is determined from the intercept (Martin, 1983).

Data set [4] has as its system human platelet rich plasma. Nature of the data set: Platelet aggregation induced by arachidonic acid. Type of data set: cell-based. The following applies: compound 600 µM, 37° C., arachidonic acid 200 µM. As for the experimental part: Platelet aggregation studies were carried out using a single channel Lumiaggregometer (Chrono-Log Company, Haverton, Pa.) at 37° C. using human platelet-rich and platelet-poor plasma. Platelet-rich plasma (PRP) with a platelet concentration of […] (measured with a Coulter counter) was prepared by centrifuging 3.8% citrated […] (1:9) at 1,500 rpm using a (Beckman) benchtop centrifuge at room temperature for 15 minutes. Platelet-poor plasma (PPP) was prepared by further centrifuging residual blood from platelet-rich plasma at 3,000 rpm for 30 minutes. Platelet-poor plasma was also confirmed b y Coulter counting for platelet content.
Platelet aggregation studies were preceded by pipetting 0.4 mL platelet-rich plasma into a stirred aggregometer tube and calibrate to 90% of recorder. Platelet-poor plasma was set to calibrate at 10% of recorder. Platelet aggregation was initiated by the addition of a arachidonic acid (Sigma) or ADP (Sigma).
10 mM solutions of each compound (TABLE 6) were prepared in 1 mL of normal saline solution (containing 4% BSA) before use. An aliquot (400 μL) of platelet-rich plasma was pipetted into a stirred aggregometer tube at 37° C. and 30 μL of test sample added simultaneously. This mixture was preincubated for varying period (3 to 45 minutes), then arachidonic acid (AA) was added (final conc.=200 μM) to initiate platelet aggregation. If no aggregation occurred, 20 μM ADP was added to confirm the vitality of the platelets (if the platelets are vital, ADP will induce this AA-test sample-plasma mixture to aggregate). This procedure is necessary to investigate whether the non-aggregation phenomenon is due to drug inhibition or simply due to inviable platelets (unable to respond to AA). The degree of aggregation was measure by calculating the area under the turbidimetric response curve (AUC).

Several values for one entry are separate records, joined by “and”; a condition that tells them apart may be missing. Equal values may be shown once. Read-outs that look alike come from different tables or passages of the source.

T1 sequence (P02769 25-607): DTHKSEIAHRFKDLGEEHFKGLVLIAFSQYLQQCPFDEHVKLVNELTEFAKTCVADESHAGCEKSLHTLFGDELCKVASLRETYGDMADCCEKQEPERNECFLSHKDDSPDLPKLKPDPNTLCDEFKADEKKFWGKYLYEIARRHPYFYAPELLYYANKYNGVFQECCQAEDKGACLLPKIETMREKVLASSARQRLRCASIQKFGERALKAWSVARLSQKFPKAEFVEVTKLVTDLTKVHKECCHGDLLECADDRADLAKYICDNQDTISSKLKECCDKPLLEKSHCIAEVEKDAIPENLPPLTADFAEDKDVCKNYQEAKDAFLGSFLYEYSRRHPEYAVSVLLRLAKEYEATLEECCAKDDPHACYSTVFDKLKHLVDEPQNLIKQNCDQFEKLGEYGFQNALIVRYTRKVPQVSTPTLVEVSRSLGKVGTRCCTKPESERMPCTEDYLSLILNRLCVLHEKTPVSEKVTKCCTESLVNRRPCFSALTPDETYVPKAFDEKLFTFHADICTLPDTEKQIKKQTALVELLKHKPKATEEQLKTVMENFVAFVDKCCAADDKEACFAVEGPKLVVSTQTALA

Turning to `CCCCCCCC(=O)Oc1ccccc1C(=O)O` [Compound C8SA, n-octanoylsalicylic acid], in data set [1], the solubility was 2 µg/mL and 8 µM. The “Hydrolysis rate constant (k)” value was 0.0051 ± 0.0031 hour^1 in data set [2] (Krebs-Henseleit buffer 0% BSA, U = Undetectable) and 0.0010 ± 0.0004 hour^1 in data set [2] (Krebs-Henseleit buffer 2% BSA). In addition, the half-life in data set [2] (Krebs-Henseleit buffer with 2% w/v BSA, 2% BSA Krebs buffer, read-out: Half-life (converted)) was around 30 days; in data set [2] (bovine, Krebs-Henseleit buffer with 2% w/v BSA, read-out: Half life (t1/2) (converted)), 28.9 days; in data set [2] (protein-free Krebs-Henseleit buffer, Krebs-Henseleit buffer 0% BSA, first half life, t1/2=0.693/k, U = Undetectable, read-out: Half life (t1/2) (converted)), 5.66 days. Besides, the “Protein binding constant (K)” value in data set [3] turned out to be 13978 L/mol. For the same compound, the “Platelet Aggregation (% of control)” value in data set [4] (preincubation 3 minutes) is 95.4 ± 2.1 % of control; in data set [4] (preincubation 5 minutes) it was 92.4 ± 0.1 % of control; in data set [4] (preincubation 8 minutes), 87.3 ± 3.3 % of control; in data set [4] (preincubation 10 minutes) it was 67.5 ± 2.7 % of control; in data set [4] (preincubation 12 minutes) it was 27.3 ± 0.2 % of control; in data set [4] (preincubation 15 minutes) it was 0 % of control. The “Platelet Aggregation (% of control)” value in data set [4] (preincubation 20 minutes), in data set [4] (preincubation 25 minutes) and in data set [4] (preincubation 45 minutes) was 0 % of control in each case.

Source of the values: patent US6593365B1, “Diflunisal esters and related compounds” (The University of Queensland, priority 1997, dated 2003).
